Among the data in a melting point compilation (Tetko et al.; mined from patent text by program, amines drawn as free bases though some values may be those of a salt) are melting point values, retold here.

On to `COc1ccc(C(=O)Nc2ccc(F)cc2)cc1NS(=O)(=O)c1ccc(C#N)cc1`, for which the melting point lay within 131 to 135 °C.

`Nc1ccc2c(c1)C(=O)CC21CCCC1` had a melting point of 125 °C.

`Cc1ccc(C(=O)Nc2ccc(-n3nc(C(F)(F)F)cc3C(F)(F)F)cc2)cc1` registered a melting point of 225 to 226 °C.

`Cc1cccc2nc(NC(=O)c3ccc(C(C)(C)CCC(=O)O)cc3)cn12` displayed a melting point of 260 °C.

As for `CCCCc1cnc(-c2ccc(N)cc2)nc1`, the melting point is 154 to 156 °C.

`CCCCOc1nccnc1C1(O)CN2CCC1CC2` (stereo unspecified) had a melting point of 107 to 108 °C.

As for `C=CCOc1ccc(CCNC(=O)C(F)(F)F)cc1S(=O)(=O)N=CN(C)C`, the melting point is 92 to 93 °C.

`O=C(O)CNC1Cc2ccccc2C1`: the melting point was in the range of 211 to 214 °C.

`CC=CCC(O)C(=O)c1ccccc1` (stereo unspecified): the melting point lay in the range of 83 to 85 °C.

With `CCCCOc1ccc(S(=O)(=O)C2(C(=O)O)CCN(Cc3ccc(C)cc3)CC2)cc1`, the melting point amounted to 137 °C.

Take `CS(=O)c1nc(-c2ccccc2)c(-c2ccccc2)s1` (stereo unspecified): the melting point is 102 to 103 °C.

`OC[C@H](O)CSc1ccccc1` showed a melting point of 79 to 81 °C.

Turning to `C#Cc1cnn2c(C(F)(F)F)cc(-c3ccc(C(F)(F)F)cc3)nc12`, the melting point is 138 °C.

`CC(=O)OCc1nc2cc3c(cc2c(=O)n1COC(=O)C(C)(C)C)C(=O)CC3` yielded a melting point of 144 °C.

With `O=C1Nc2cccc(-c3cccc(NC(=O)c4ccc(O)cc4)c3)c2/C1=C/c1ccc[nH]1`, the melting point was in the range of 236 to 238 °C.

With `CN(CCO)Cc1ccc(-c2ccc3c(Nc4ccc(Sc5nccn5C)c(Cl)c4)c(C#N)cnc3c2)nc1`, the melting point was 197 to 199 °C.

As for `CCCc1c(O)cccc1Oc1cc(F)ccc1C(=O)OC`, the melting point lay in the range of 92 to 94 °C.

On to `COc1ccc(S(=O)(=O)N(CCO)c2cccc(F)c2/C=C/c2ccncc2)cc1`, for which the melting point lay within 152 to 153 °C.

For `CCOC(=O)c1c(C(C)(C)O)nc(SCC)n1Cc1ccc(-c2ccccc2-c2nnn[nH]2)cc1`, the melting point was in the range of 185 to 188 °C.

Take `CNC(=O)c1ccc2c(c1)C(=O)N1CCC[C@@H]1CO2`: the melting point lay in the range of 186 to 189 °C.

On to `CC(C)n1nc(-c2sc(N)nc2-c2cccc(Cl)c2)ccc1=O`, for which the melting point is 236 to 237 °C.

With `CC(C)c1cnn2c(O)cc(O)nc12`, the melting point is 242 to 243 °C.

For the molecule `CCOC(=O)c1cc(=O)c2ccc(OCCCCCOc3ccc(C(C)=O)c(O)c3)cc2o1`, the melting point is 136 to 137 °C.

In the case of `O=C1NC(=O)C2(CCOc3ccc(F)cc32)S1` (stereo unspecified), the melting point is 147 to 149 °C.

For the molecule `Cn1cc2c(O)cc(-c3ccccc3)nc2n1`, the melting point fell in the range of 241 to 243 °C.

Regarding `CCCCCCCCC(O)C(O)CCCCCCCCCCCC(N)=O` (stereo unspecified), the melting point fell in the range of 153 to 154 °C.

Regarding `FC(F)(F)c1ccc(OC2CCCCO2)c(Sc2ccccc2)c1` (stereo unspecified), the melting point fell in the range of 72 to 73 °C.

`O=C1CC2(CCCCC2)CC(=O)N1c1ccncc1` showed a melting point of 213 to 215 °C.

With `CC(C)n1c(C=O)c(-c2ccc(F)cc2)c(-c2ccccc2)c1C(=O)NCCc1cccnc1`, the melting point fell in the range of 192 to 194 °C.

`CCCCc1nc(=O)c2cc(-c3nnn(C(c4ccccc4)(c4ccccc4)c4ccccc4)n3)ccc2[nH]1` yielded a melting point of 182 °C.

Regarding `CCS(=O)(=O)Nc1ccc(F)cc1Br`, the melting point lay in the range of 79 to 81 °C.

Consider `CCOC(=O)c1cc(OCc2ccccc2)c2c(Cl)cc(Cl)cc2n1`, for which the melting point was 146 to 147 °C.

For the molecule `CCCOc1cc(-c2c(C(=O)OCC)c(Cn3cncn3)nc3cc(OC)c(OC)cc23)ccc1OC`, the melting point lay within 127 to 128 °C.

Turning to `N#CCCNC(=O)c1cccc(-c2cccc3nn(Cc4cccc(F)c4)cc23)c1`, the melting point fell in the range of 170 to 171 °C.

`C[C@@H](C(=O)O)N(C)C(=O)c1cc(C(F)(F)F)cc([N+](=O)[O-])c1N` returned a melting point of 136 °C.

Molecule `COc1cc2c(cc1OC)C(=C(C#N)SCC(CN1CCOCC1)OC(=O)c1ccccc1)NCC2` (stereo unspecified) registered a melting point of 144 °C.

In turn, `CC(=O)N(CCOc1cccc2ccccc12)c1ccc(C(=O)O)cc1` came in with a melting point of 182 to 183 °C.

With `CCCCCCCNC(=O)Nc1ccc(CCc2cc(C(C)(C)C)c(O)c(C(C)(C)C)c2)cc1`, the melting point was 151 to 152 °C.

In the case of `CCCCOc1cc(OC)ccc1C(=O)c1cccc(C(=O)O)c1`, the melting point lay within 112 to 115 °C.

For `CCOC(=O)c1cn(CC)c2cc(NC(C)=O)c(F)cc2c1=O`, the melting point fell in the range of 177 to 180 °C.

In the case of `N#Cc1ccc(Nn2cnnc2)cc1`, the melting point fell in the range of 200 to 204 °C.

Turning to `O=C(O)[C@@H]1CC2(CN1C(=O)CP(=O)(O)CCCCc1ccccc1)SCCS2`, the melting point fell in the range of 106 to 107 °C.

In turn, `CCCCCCNC(=O)C(C)N1CCN(c2ccccn2)CC1` (stereo unspecified) returned a melting point of 131 to 132 °C.

Turning to `CCN(CC)C(=O)OCC1CN(C(=O)c2cc(OC)c(OC)c(OC)c2)CCN1C(=O)c1cc(OC)c(OC)c(OC)c1` (stereo unspecified), the melting point was found to be 95.1 °C.

On to `CNC1(CC2CCCCC2)C(=O)N(S(=O)(=O)c2ccc([N+](=O)[O-])cc2OC)c2ccc(Cl)cc21` (stereo unspecified), for which the melting point was 207 °C.

For `CCCCC1NC(C(=O)OC)Cc2c1[nH]c1ccccc21` (stereo unspecified), the melting point was in the range of 102 to 103 °C.

Molecule `O=C1NCn2c3ccccc3c(=O)c3cccc1c32` had a melting point of 250 to 255 °C.

As to `Cc1oncc1C(=O)N1CCC[C@H](c2nc(-c3cc4ccccc4[nH]3)no2)C1`, the melting point lay in the range of 163 to 164 °C.

Turning to `CSc1c(C#N)nn(-c2c(Cl)cc(C(F)(F)F)cc2Br)c1N`, the melting point was 178 to 180 °C.

`COc1cccc(-c2cc(=O)c3c(OC)cc(OC)c(C4=CCN(C)CC4)c3o2)c1OC` displayed a melting point of 195 to 196 °C.

In the case of `NC(=O)Nc1ccc2c(=O)n(CCCCN3CC=C(c4ccccc4)CC3)c(=O)[nH]c2c1`, the melting point was 260 °C.

For the molecule `Cc1nc(CC(N)=O)no1`, the melting point lay in the range of 112 to 114 °C.

Take `COC1(c2nc3ccccc3s2)C=CC(=O)C=C1`: the melting point is 123 °C.

Molecule `Cn1c(CO)cc2cccc(F)c21` returned a melting point of 89 to 91 °C.

For the molecule `Clc1nc(N2CCCCC2)c2ncnc(Cl)c2n1`, the melting point lay in the range of 114 to 117 °C.

The molecule `O=C1Cc2cc(O)cc(O)c2C2CCCCC12` (stereo unspecified) displayed a melting point of 220 to 223 °C.

`O=C(O)CCCCC(O)CCCl` (single isomer, unassigned; (-)) displayed a melting point of 29 to 30 °C.

Molecule `CC#CCOc1cc(C=O)ccc1OC` had a melting point of 81 to 83 °C.

In the case of `NS(=O)(=O)c1cccc(-c2cc(-c3nc(-c4cccc(C(F)(F)F)c4)cc(C(F)(F)F)n3)ccn2)c1`, the melting point was 244 °C.

`Cc1ccc(-c2c(N)ncnc2OCCOc2ncc(Br)cn2)cc1` registered a melting point of 178 to 180 °C.

Take `CS(=O)(=O)c1csc(NC(=O)c2ccccc2O)n1`: the melting point was 231 to 235 °C.

As to `CC(C)n1cnc2c(N[C@H](CO)c3ccccc3)nc(NC[C@@H](C)O)nc21`, the melting point was in the range of 109 to 112 °C.

Regarding `O=C(O)Cc1c(C(=O)O)c2cc(Oc3ccc(Cl)cc3)ccc2n1-c1ccc(OC(F)(F)F)cc1`, the melting point lay in the range of 198 to 202 °C.

As to `CC(C)(C)c1cc(SCCC(=O)NCC(=O)c2ccccc2)cc(C(C)(C)C)c1O`, the melting point fell in the range of 146 to 148 °C.

With `Nc1ncc(-c2nc(N3CCOCC3)c3sc(NS(=O)(=O)c4cccc(C=CC(=O)NO)c4)cc3n2)cn1`, the melting point is above 300 °C.

`CCOC(=O)c1cc(C)c(C(=O)OCC)n1C`: the melting point was in the range of 48 to 48.5 °C.

Take `COc1ccc(CNC(=O)c2cc(C)sc2N)cc1OC`: the melting point is 175 °C.

`CC(C)(C)OC(=O)Nc1ccc(F)c(F)c1` displayed a melting point of 135 to 137 °C.

`CCN(CC)S(=O)(=O)c1cc(C)c2c(c1)S(=O)(=O)NC(C1CCCCC1)=N2` registered a melting point of 206 to 208 °C.

For the molecule `CC=C1OCC2(CO1)COC(=CC)OC2` (stereo unspecified), the melting point came to 30 °C.

`CC(C)n1nc(-c2sc(NC(=O)N(C)C)nc2-c2ccccc2)ccc1=O` came in with a melting point of 199 to 200 °C.

`COc1cc2c(c3c1OC(C)(C)C3)C(c1ccncc1Cl)=NC(C)(C)C2` displayed a melting point of 126 to 128 °C.

In turn, `C1=C(/C=C/c2ccccc2)CCN(Cc2n[nH]c3c2CCc2ccccc2-3)C1` registered a melting point of 205 to 210 °C.

For `O=C1NC(=O)C(=Cc2ccc3c(c2)CN(c2ccccn2)CCO3)S1`, the melting point fell in the range of 260 to 261 °C.

`CN(C)Cc1ccc2oc(-c3ccc(O)cc3)cc(=O)c2c1`: the melting point fell in the range of 99 to 102 °C.

Molecule `Cc1ccccc1Cc1ccc(=O)[nH]n1` yielded a melting point of 156 to 157 °C.

Molecule `Nc1cccc(C(=O)c2ccc(Oc3ccccc3)c(N)c2)c1` came in with a melting point of 112 to 113 °C.

With `Cc1cc2c(cnn2-c2c(Cl)cc(C(F)(F)F)cc2Cl)nc1C`, the melting point fell in the range of 135 to 136 °C.

As to `CSC1=Nc2ccccc2C(=O)N(C)C1c1ccccc1` (stereo unspecified), the melting point was 130 to 132 °C.

`CC(C)(CNc1ccc(C2=NNC(=O)CC2)cc1)NCC(O)COc1cc(Cl)ccc1C#N` (stereo unspecified) gave a melting point of 160 to 162 °C.

`CC(O)CC#Cc1ccc(C(CC2CCCC2)C(=O)O)cc1` (stereo unspecified) gave a melting point of 73 to 76 °C.

Molecule `CC(C)(C)NCC(COc1cccc2c1CC(=O)N2)OC(=O)C=Cc1ccccc1` (stereo unspecified) gave a melting point of 128 to 132 °C.

For `O=C(CCl)NC(C(=O)O)c1cscn1` (stereo unspecified), the melting point is 193 to 195 °C.

For `CCc1noc(-c2cc3c(cn2)[nH]c2ccc(N(C)C)cc23)n1`, the melting point is 235 to 240 °C.

In the case of `O=C1CNN(c2cc(Cl)c(C(C(=O)O)c3ccc(Cl)cc3)c(Cl)c2)C(=O)N1` (stereo unspecified), the melting point amounted to 194 °C.

Molecule `COc1cccc(NC=C2C(=O)OC(C)(C)OC2=O)c1` returned a melting point of 108 °C.

Regarding `CC(C)c1ccc([N+](=O)[O-])c(C(C)C)c1NC(=O)CN1CCN(CCCSc2nc3ccccc3o2)CC1`, the melting point lay within 156 to 158 °C.

On to `Nc1nc(O)ncc1-c1cccc(Cl)c1Cl`, for which the melting point lay in the range of 330 to 334 °C.

`CC(=O)c1c(N(C)C)nn2ccccc12`: the melting point lay within 59.5 to 60 °C.

In the case of `[N-]=[N+]=NCc1ccc(Sc2ccc(Cl)cc2)c(Cl)c1`, the melting point was 39 to 41 °C.

In the case of `O=c1cc(-c2ccc(F)cc2)c2c([nH]1)C1CCC(C2)C1` (stereo unspecified), the melting point is above 300 °C.

By melting point is commonly meant the temperature, or range, at which the solid turns liquid.
